In PubChem BioAssay (NCI):
“And” between values parts separate entries of the source, which are not always exact repeats. Identical values can stand only once.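 Grown in 96-well plates, cells were treated for 48 hours with each compound at five concentrations. Insufficient inhibition: endpoint recorded as highest concentration tested. GI50 = concentration required for 50% inhibition of growth. TGI is the concentration that stops growth completely.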

Tests used:
Assay in all cases: growth of human tumour cells (NCI), 48 h
[1] = system: A498 renal
[2] = system: COLO 205 colon
[3] = system: HOP-62 NSCLC
[4] = system: NCI/ADR-RES ovarian
[5] = system: OVCAR-4 ovarian
[6] = system: SF-268 CNS
[7] = system: SF-295 CNS
[8] = system: SK-MEL-5 melanoma
[9] = system: SK-OV-3 ovarian
[10] = system: UO-31 renal

Compound: CCOC(=O)C(C#N)C1=CC(=O)C(=O)c2ccc(OC)cc21 (stereo not given)
- TGI [1]: 58.9 µM
- TGI [2]: 32.3 µM
- TGI [3]: 51.7 µM
- TGI [4]: 51.3 µM
- TGI [5]: 33.7 µM
- TGI [6]: > 100 µM
- TGI [7]: 58.3 µM
- TGI [8]: 28.8 µM
- TGI [9]: 56.7 µM
- TGI [10]: 32 µM

Compound: COc1cccc2c1C(=O)c1c(O)c3c(c(O)c1C2=O)C[C@@](O)(C(=O)CO)C[C@@H]3OC1CC(N)CC(C)O1 (stereo not given in full)
- GI50 [1]: 0.111 µM and 0.0375 µM
- TGI [1]: 0.366 µM and 0.165 µM
- GI50 [2]: 0.0823 µM
- TGI [2]: 0.389 µM and 0.351 µM
- GI50 [3]: 0.0175 µM
- TGI [3]: 0.326 µM and 0.0977 µM
- GI50 [4]: 2.75 µM
- TGI [4]: 28.2 µM
- GI50 [5]: 0.0885 µM
- TGI [5]: 0.456 µM and 0.413 µM
- GI50 [6]: 0.0515 µM
- TGI [6]: 0.461 µM and 0.937 µM
- GI50 [7]: 0.018 µM
- TGI [7]: 0.208 µM and 0.13 µM
- GI50 [8]: 0.00743 µM and 0.025 µM
- TGI [8]: 0.145 µM and 0.203 µM
- GI50 [9]: 0.0837 µM
- TGI [9]: 0.94 µM and 3.52 µM
- GI50 [10]: 0.192 µM and 0.362 µM
- TGI [10]: 0.771 µM and 1.61 µM

Compound: CC1(C)N=C(N)N=C(N)N1c1ccc(CCCCc2ccc(Cl)cc2S(=O)(=O)F)c(Cl)c1
- GI50 [1]: 3.19 µM
- TGI [1]: 18.9 µM
- GI50 [2]: 0.522 µM
- TGI [2]: 2.53 µM
- GI50 [3]: 0.63 µM
- TGI [3]: 12.7 µM
- GI50 [4]: 5.28 µM
- TGI [4]: > 100 µM
- GI50 [5]: 3.11 µM
- TGI [5]: 19.2 µM
- GI50 [6]: 0.493 µM
- TGI [6]: 17.7 µM
- GI50 [7]: 0.409 µM
- TGI [7]: 12.8 µM
- GI50 [8]: 0.552 µM
- TGI [8]: 12.6 µM
- GI50 [9]: 4.3 µM
- TGI [9]: 18.9 µM
- GI50 [10]: 6.22 µM
- TGI [10]: 23.6 µM

Compound: COc1cc(OCc2cccc(-c3ccc(C(O)c4nccs4)cc3)c2C)cc(OC)c1C=O (stereo not given)
- GI50 [1]: 0.103 µM
- TGI [1]: 0.238 µM
- GI50 [2]: 2.64 µM
- TGI [2]: 8.27 µM
- GI50 [3]: 3.88 µM
- TGI [3]: 18.3 µM
- GI50 [4]: 2.84 µM
- TGI [4]: 14.7 µM
- GI50 [5]: 0.597 µM
- TGI [5]: 6.35 µM
- GI50 [6]: 2.92 µM
- TGI [6]: 12.3 µM
- GI50 [7]: 2.12 µM
- TGI [7]: 6.58 µM
- GI50 [8]: 1.11 µM
- TGI [8]: 2.4 µM
- GI50 [9]: 6.07 µM
- TGI [9]: 20.9 µM
- GI50 [10]: 1.49 µM
- TGI [10]: 4.68 µM

Compound: CC1(C)C(C#N)C1C1=C(N2CCOCC2)[C@]2(C)C(OC(=O)c3ccccc3)CC[C@@H]2C1 (stereo not given in full)
- TGI [1]: > 100 µM
- TGI [2]: > 100 µM
- TGI [3]: > 100 µM
- TGI [4]: > 100 µM
- TGI [5]: > 100 µM
- TGI [6]: > 100 µM
- TGI [7]: > 100 µM
- TGI [8]: > 100 µM
- TGI [9]: > 100 µM
- TGI [10]: > 100 µM

Compound: Cn1cc(C2=C(c3ccc(N)cc3)C(=O)NC2=O)c2ccccc21
- GI50 [1]: 3.63 µM
- TGI [1]: 12 µM
- GI50 [2]: 11.6 µM
- TGI [2]: > 25 µM
- GI50 [3]: > 25 µM
- TGI [3]: > 25 µM
- GI50 [4]: 21.8 µM
- TGI [4]: > 25 µM
- GI50 [5]: > 25 µM
- TGI [5]: > 25 µM
- GI50 [6]: 20.1 µM
- TGI [6]: > 25 µM
- GI50 [7]: 15.7 µM
- TGI [7]: > 25 µM
- GI50 [8]: > 17.8 µM
- TGI [8]: > 25 µM
- GI50 [9]: 13.9 µM
- TGI [9]: > 25 µM
- GI50 [10]: 16.5 µM
- TGI [10]: > 25 µM

Compound: C(=NCCN1CCOCC1)=NC1CCCCC1
- TGI [1]: > 100 µM
- TGI [2]: > 100 µM
- TGI [3]: > 100 µM
- TGI [4]: > 100 µM
- TGI [5]: > 100 µM
- TGI [6]: > 100 µM
- TGI [7]: > 100 µM
- TGI [8]: > 100 µM
- TGI [9]: > 100 µM
- TGI [10]: > 100 µM

Compound: CCN(CC)CCC(CNc1ccnc2cc(Cl)ccc12)c1ccc(Cl)cc1 (stereo not given)
- GI50 [1]: 1.21 µM
- TGI [1]: 2.76 µM
- GI50 [2]: 1.13 µM
- TGI [2]: 2.5 µM
- GI50 [3]: 1.78 µM
- TGI [3]: 5.9 µM
- GI50 [4]: 2.06 µM
- TGI [4]: 8.65 µM
- GI50 [5]: 0.764 µM
- TGI [5]: 4.32 µM
- GI50 [6]: 1.97 µM
- TGI [6]: 4.61 µM
- GI50 [7]: 1.02 µM
- TGI [7]: 2.64 µM
- GI50 [8]: 1.11 µM
- TGI [8]: 2.34 µM
- GI50 [9]: 2.1 µM
- TGI [9]: 5.4 µM
- GI50 [10]: 0.642 µM
- TGI [10]: 2.07 µM

Compound: O=C(Nc1ccc2ncccc2c1)Nc1ccc2ncccc2c1
- TGI [1]: > 100 µM
- TGI [2]: > 100 µM
- TGI [3]: > 100 µM
- TGI [4]: > 100 µM
- TGI [5]: > 100 µM
- TGI [6]: > 100 µM
- TGI [7]: > 100 µM
- TGI [8]: > 100 µM
- TGI [9]: > 100 µM
- TGI [10]: > 100 µM

Compound: CSC1=Nc2c(c(C)c(C)n2COC(CO)CO)C2=NC(=O)C(C)N12 (stereo not given)
- GI50 [1]: > 100 µM
- TGI [1]: > 100 µM
- GI50 [2]: > 100 µM
- TGI [2]: > 100 µM
- GI50 [3]: > 100 µM
- TGI [3]: > 100 µM
- GI50 [4]: > 100 µM
- TGI [4]: > 100 µM
- GI50 [5]: > 100 µM
- TGI [5]: > 100 µM
- GI50 [6]: > 100 µM
- TGI [6]: > 100 µM
- GI50 [7]: > 100 µM
- TGI [7]: > 100 µM
- GI50 [8]: > 100 µM
- TGI [8]: > 100 µM
- GI50 [9]: > 100 µM
- TGI [9]: > 100 µM
- GI50 [10]: > 100 µM
- TGI [10]: > 100 µM

Compound: Cn1c(I)c(C#CCO[Si](C)(C)C(C)(C)C)c(=O)[nH]c1=O
- GI50 [1]: 19.9 µM
- TGI [1]: 38 µM
- GI50 [2]: 6.41 µM
- TGI [2]: 20 µM
- GI50 [3]: > 44.1 µM
- TGI [3]: > 59 µM
- GI50 [4]: 19.2 µM
- TGI [4]: 38.1 µM
- GI50 [5]: 10.1 µM
- TGI [5]: 27.4 µM
- GI50 [6]: 15.9 µM
- TGI [6]: 30.2 µM
- GI50 [7]: > 100 µM
- TGI [7]: > 100 µM
- GI50 [8]: 17.1 µM
- TGI [8]: 31.3 µM
- GI50 [9]: > 100 µM
- TGI [9]: > 100 µM
- GI50 [10]: 14.6 µM
- TGI [10]: 28.6 µM
